Assay results as given in US9399646B2 (Genentech, Inc., priority 2010, dated 2016).

How the values were obtained:
MCF-7 cells = experiment: Breast cancer cell viability assay (CellTiter-Glo, 5 days); assay type: cell-based; settings: 5 days' compound exposure; for IC50: Homo sapiens, MCF7, 120 h
Method in brief: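 Eleven-point semilog compound series, final 0.3-0.000003 μM, added to overnight-adhered MCF-7 cells (320/well; RPMI, 10% FBS, 20 mM HEPES) for 5 days. Viability read by CellTiter-Glo luminescence, background from medium without cells subtracted, expressed relative to untreated cells.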

ER-α in MCF-7 cells = target: T1, ER-α in MCF-7 cells (Homo sapiens, UniProt P03372); experiment: Breast cancer cell ER-α in cell western assay (SP1); assay type: cell-based; set-up: endogenous in cells; host or cells: MCF-7; settings: 4 or 24 hr post compound addition; for Emax: MCF7, SP1 antibody, read-out: ER-α In Cell Western Assay (SP1) Max Response; for DC50: SP1 antibody, read-out: ER-α In Cell Western Assay (SP1) IC50
T1 sequence (P03372 1-595): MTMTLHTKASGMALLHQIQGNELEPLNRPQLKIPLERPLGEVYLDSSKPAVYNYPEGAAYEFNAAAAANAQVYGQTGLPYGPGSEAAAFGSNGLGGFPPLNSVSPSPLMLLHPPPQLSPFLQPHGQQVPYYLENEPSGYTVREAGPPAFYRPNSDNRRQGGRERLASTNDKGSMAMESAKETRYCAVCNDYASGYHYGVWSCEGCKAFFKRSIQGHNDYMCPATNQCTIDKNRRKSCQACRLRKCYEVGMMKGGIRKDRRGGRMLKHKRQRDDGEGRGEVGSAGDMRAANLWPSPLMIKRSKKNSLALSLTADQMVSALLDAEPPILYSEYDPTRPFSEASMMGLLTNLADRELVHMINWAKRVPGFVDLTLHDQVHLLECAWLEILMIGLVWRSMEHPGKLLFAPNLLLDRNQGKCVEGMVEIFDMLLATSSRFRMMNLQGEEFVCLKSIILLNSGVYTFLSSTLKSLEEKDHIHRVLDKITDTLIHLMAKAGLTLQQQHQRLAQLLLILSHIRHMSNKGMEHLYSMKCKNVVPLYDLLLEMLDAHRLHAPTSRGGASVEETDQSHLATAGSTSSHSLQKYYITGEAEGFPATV
Method in brief: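 Percent remaining ER: SP1 immunofluorescence normalized to DRAQ5 nuclear stain, compared with untreated controls. Treatment lasted 4 or 24 hr across 0.3–0.000003 μM final in MCF-7.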

SMILES | IC50 (MCF-7 cells) [nM] | Emax (ER-α in MCF-7 cells) [%] | DC50 (ER-α in MCF-7 cells) [nM] | MCF7 Viability Assay Max Response (MCF-7 cells)
O=C(/C=C/c1ccc(/C(=C(\c2ccccc2)C2CCC2)c2ccc3[nH]nc(F)c3c2)cc1)NCC(F)(F)F [Compound 415, (E)-3-(4-((E)-2-Cyclobutyl-1-(3-fluoro-1H-indazol-5-yl)-2-phenylvinyl)phenyl)-N-(2,2,2-trifluoroethyl)acrylamide] | ≤ 100 | ≥ 40 | ≤ 100 | ++ (++ = a single % value ≧ 40%)
CC/C(=C(/c1ccc(/C=C/C(=O)NS(C)(=O)=O)cc1)c1ccc2scnc2c1)c1ccc(F)cc1Cl [Compound 416, (E)-3-(4-((E)-1-(Benzo[d]thiazol-5-yl)-2-(2-chloro-4-fluorophenyl)but-1-en-1-yl)phenyl)-N-(methylsulfonyl)acrylamide] | ≤ 100 | ≥ 40 | ≤ 100 | ++ (++ = a single % value ≧ 40%)
CC/C(=C(/c1ccc(/C=C/C(=O)NO)cc1)c1ccc2[nH]ncc2c1)c1ccccc1 [Compound 418, (E)-3-(4-((E)-1-(1H-Indazol-5-yl)-2-phenylbut-1-en-1-yl)phenyl)-N-hydroxyacrylamide] | ≤ 100 | ≥ 40 | ≤ 100 | ++ (++ = a single % value ≧ 40%)
CC/C(=C(/c1ccc(/C=C/C(=O)NC(C)C)cc1)c1ccc2[nH]ncc2c1)c1ccccc1 [Compound 419, (E)-3-(4-((E)-1-(1H-Indazol-5-yl)-2-phenylbut-1-en-1-yl)phenyl)-N-isopropylacrylamide] | ≤ 100 | ≥ 40 | ≤ 100 | ++ (++ = a single % value ≧ 40%)
CC/C(=C(/c1ccc(/C=C/C(=O)N(C)OC)cc1)c1ccc2[nH]ncc2c1)c1ccc(F)cc1Cl [Compound 422, (E)-3-(4-((E)-2-(2-Chloro-4-fluorophenyl)-1-(1H-indazol-5-yl)but-1-en-1-yl)phenyl)-N-methoxy-N-methylacrylamide] | ≤ 100 | ≥ 40 | ≤ 100 | ++ (++ = a single % value ≧ 40%)
CC/C(=C(/c1ccc(/C=C/C(=O)NS(C)(=O)=O)cc1)c1ccc2[nH]ncc2c1)c1ccccc1 [Compound 423, (E)-3-(4-((E)-1-(1H-Indazol-5-yl)-2-phenylbut-1-en-1-yl)phenyl)-N-(methylsulfonyl)acrylamide] | ≤ 100 | ≥ 40 | ≤ 100 | ++ (++ = a single % value ≧ 40%)
CC/C(=C(/c1ccc(/C=C/C(=O)NS(C)(=O)=O)cc1)c1ccc2c(cnn2C)c1)c1ccc(F)cc1Cl [Compound 424, (E)-3-(4-((E)-2-(2-Chloro-4-fluorophenyl)-1-(1-methyl-1H-indazol-5-yl)but-1-en-1-yl)phenyl)-N-(methylsulfonyl)acrylamide] | > 100 | ≥ 40 | ≤ 100 | ++ (++ = a single % value ≧ 40%)

The next lines start with results.

IC50 (MCF-7 cells) [nM] | Emax (ER-α in MCF-7 cells) [%] | DC50 (ER-α in MCF-7 cells) [nM] | SMILES | MCF7 Viability Assay Max Response (MCF-7 cells)
≤ 100 | ≥ 40 | ≤ 100 | CC/C(=C(/c1ccc(/C=C/C(N)=O)cc1)c1ccc2[nH]ncc2c1)c1ccc(F)cc1Cl [Compound 417, (E)-3-(4-((E)-2-(2-Chloro-4-fluorophenyl)-1-(1H-indazol-5-yl)but-1-en-1-yl)phenyl)acrylamide] | ++ (++ = a single % value ≧ 40%)
≤ 100 | ≥ 40 | ≤ 100 | CC/C(=C(/c1ccc(/C=C/C(=O)NC)cc1)c1ccc2[nH]ncc2c1)c1ccc(F)cc1Cl [Compound 420, (E)-3-(4-((E)-2-(2-Chloro-4-fluorophenyl)-1-(1H-indazol-5-yl)but-1-en-1-yl)phenyl)-N-methylacrylamide] | ++ (++ = a single % value ≧ 40%)
≤ 100 | ≥ 40 | ≤ 100 | CC/C(=C(/c1ccc(/C=C/C(=O)NOC)cc1)c1ccc2[nH]ncc2c1)c1ccc(F)cc1Cl [Compound 421, (E)-3-(4-((E)-2-(2-Chloro-4-fluorophenyl)-1-(1H-indazol-5-yl)but-1-en-1-yl)phenyl)-N-methoxyacrylamide] | ++ (++ = a single % value ≧ 40%)
